Measurements as given in patent US20240376100A1 (Redona Therapeutics, Inc., priority 2021, published 2024).
Where a name gives a salt, the structure may show the parent alone.

Target: PAPD5 enzyme (Homo sapiens, UniProt Q8NDF8)
Experiment: PAPD5 assay (AMP incorporation onto 3'-terminus of RNA substrate, fluorescence quench)
Assay type: biochemical
Settings: PAPD5 protein 0.3 nM, ATP 50 μM, 30 minutes preincubation, room temperature; read-out: Potency PAPD5 IC50
Summary of the method: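 Enzyme at 0.3 nM with 50 μM ATP, pH 7.3 HEPES buffer, preincubated with compound 30 minutes at room temperature; 5 nM 5′-fluorescein RNA substrate and 20 nM TAMRA quench probe then added. Initial rates from kinetic fluorescein decrease over ~90 minutes; IC50 by four-parameter fit.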

PAPD5 enzyme, sequence (Q8NDF8 whole entry): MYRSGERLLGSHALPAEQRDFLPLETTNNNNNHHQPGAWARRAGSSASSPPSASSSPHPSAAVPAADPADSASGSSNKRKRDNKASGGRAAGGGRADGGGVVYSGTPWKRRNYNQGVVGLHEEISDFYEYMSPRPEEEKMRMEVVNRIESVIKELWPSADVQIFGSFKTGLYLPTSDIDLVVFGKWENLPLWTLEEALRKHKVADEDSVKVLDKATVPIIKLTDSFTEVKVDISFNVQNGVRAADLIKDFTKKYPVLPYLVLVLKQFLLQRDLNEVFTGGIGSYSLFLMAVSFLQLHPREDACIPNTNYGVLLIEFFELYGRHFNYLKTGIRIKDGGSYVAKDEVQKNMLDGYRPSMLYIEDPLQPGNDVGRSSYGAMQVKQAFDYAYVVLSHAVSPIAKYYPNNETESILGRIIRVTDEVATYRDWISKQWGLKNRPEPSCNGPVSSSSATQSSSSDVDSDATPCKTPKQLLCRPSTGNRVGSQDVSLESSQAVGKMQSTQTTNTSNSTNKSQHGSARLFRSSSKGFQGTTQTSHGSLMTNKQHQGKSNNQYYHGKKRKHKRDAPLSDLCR

Row | Structure (SMILES) | IC50
1 | COCCN1CCC(Cn2cc(C(=O)O)c(=O)c3cc(Cl)c(N4Cc5cccnc5C4)nc32)CC1 [Example 100, 6-chloro-7-(5,7-dihydro-6H-pyrrolo[3,4-b]pyridin-6-yl)-1-((1-(2-methoxyethyl)piperidin-4-yl)methyl)-4-oxo-1,4-dihydro-1,8-naphthyridine-3-carboxylic acid hydro chloride] | ≤ 1000 nM
2 | O=C(O)c1cn(C2CCOCC2)c2nc(N3Cc4cccnc4C3)c(Cl)cc2c1=O [Example 101, 6-chloro-7-(5,7-dihydro-6H-pyrrolo[3,4-b]pyridin-6-yl)-4-oxo-1-(tetrahydro-2H-pyran-4-yl)-1,4-dihydro-1,8-naphthyridine-3-carboxylic acid] | ≤ 1000 nM
3 | COc1cnc(-n2cc(C(=O)O)c(=O)c3cc(F)c(N4Cc5cccnc5C4)nc32)cn1 [Example 103, 7-(5,7-dihydro-6H-pyrrolo[3,4-b]pyridin-6-yl)-6-fluoro-1-(5-methoxypyrazin-2-yl)-4-oxo-1,4-dihydro-1,8-naphthyridine-3-carboxylic acid] | ≤ 1000 nM
4 | Cc1cc(NC(=O)C2CC2)ncc1-n1cc(C(=O)O)c(=O)c2cc(Cl)c(N3Cc4cccnc4C3)cc21 [Example 114, 6-chloro-1-(6-(cyclopropanecarboxamido)-4-methylpyridin-3-yl)-7-(5,7-dihydro-6H-pyrrolo[3,4-b]pyridin-6-yl)-4-oxo-1,4-dihydroquinoline-3-carboxylic acid] | ≤ 1000 nM
5 | Cc1cc(NC(=O)N2CCOCC2)ncc1-n1cc(C(=O)O)c(=O)c2cc(Cl)c(N3Cc4cccnc4C3)cc21 [Example 115, 6-chloro-7-(5,7-dihydro-6H-pyrrolo[3,4-b]pyridin-6-yl)-1-(4-methyl-6-(morpholine-4-carboxamido)pyridin-3-yl)-4-oxo-1,4-dihydroquinoline-3-carboxylic acid] | ≤ 1000 nM
6 | Cc1cc(NC(=O)N(C)C)ncc1-n1cc(C(=O)O)c(=O)c2cc(Cl)c(N3Cc4cccnc4C3)cc21 [Example 116, 6-chloro-7-(5,7-dihydro-6H-pyrrolo[3,4-b]pyridin-6-yl)-1-(6-(3,3-dimethylureido)-4-methylpyridin-3-yl)-4-oxo-1,4-dihydroquinoline-3-carboxylic acid] | ≤ 1000 nM
7 | CCc1cc(N)ncc1-n1cc(C(=O)O)c(=O)c2cc(Cl)c(N3Cc4cccnc4C3)cc21 [Example 117, 1-(6-amino-4-ethylpyridin-3-yl)-6-chloro-7-(5,7-dihydro-6H-pyrrolo[3,4-b]pyridin-6-yl)-4-oxo-1,4-dihydroquinoline-3-carboxylic acid] | ≤ 1000 nM
8 | Nc1cc(C2CC2)c(-n2cc(C(=O)O)c(=O)c3cc(Cl)c(N4Cc5cccnc5C4)cc32)cn1 [Example 118, 1-(6-amino-4-cyclopropylpyridin-3-yl)-6-chloro-7-(5,7-dihydro-6H-pyrrolo[3,4-b]pyridin-6-yl)-4-oxo-1,4-dihydroquinoline-3-carboxylic acid] | ≤ 1000 nM
9 | O=C(O)c1cn(CC2CCNCC2)c2cc(N3Cc4cccnc4C3)c(Cl)cc2c1=O [Example 119, 6-chloro-7-(5,7-dihydro-6H-pyrrolo[3,4-b]pyridin-6-yl)-4-oxo-1-(piperidin-4-ylmethyl)-1,4-dihydroquinoline-3-carboxylic acid hydrochloride] | ≤ 1000 nM
10 | CN1CCC(Cn2cc(C(=O)O)c(=O)c3cc(Cl)c(N4Cc5cccnc5C4)cc32)CC1 [Example 120, 6-chloro-7-(5,7-dihydro-6H-pyrrolo[3,4-b]pyridin-6-yl)-1-((1-methylpiperidin-4-yl)methyl)-4-oxo-1,4-dihydroquinoline-3-carboxylic acid] | ≤ 1000 nM
11 | CN1CCC(n2cc(C(=O)O)c(=O)c3cc(Cl)c(N4Cc5cccnc5C4)cc32)CC1 [Example 121, 6-chloro-7-(5,7-dihydro-6H-pyrrolo[3,4-b]pyridin-6-yl)-1-(1-methylpiperidin-4-yl)-4-oxo-1,4-dihydroquinoline-3-carboxylic acid] | ≤ 1000 nM
12 | CC(=O)N1CCC(Cn2cc(C(=O)O)c(=O)c3cc(Cl)c(N4Cc5cccnc5C4)cc32)CC1 [Example 122, 1-((1-acetylpiperidin-4-yl)methyl)-6-chloro-7-(5,7-dihydro-6H-pyrrolo[3,4-b]pyridin-6-yl)-4-oxo-1,4-dihydroquinoline-3-carboxylic acid] | ≤ 1000 nM
13 | O=C(O)c1cn(C2CCNCC2)c2cc(N3Cc4cccnc4C3)c(Cl)cc2c1=O [Example 123, 6-chloro-7-(5,7-dihydro-6H-pyrrolo[3,4-b]pyridin-6-yl)-4-oxo-1-(piperidin-4-yl)-1,4-dihydroquinoline-3-carboxylic acid hydrochloride] | ≤ 1000 nM
14 | Cn1cc(Cn2cc(C(=O)O)c(=O)c3cc(Cl)c(N4Cc5cccnc5C4)cc32)cn1 [Example 124, 6-chloro-7-(5,7-dihydro-6H-pyrrolo[3,4-b]pyridin-6-yl)-1-((1-methyl-1H-pyrazol-4-yl)methyl)-4-oxo-1,4-dihydroquinoline-3-carboxylic acid] | ≤ 1000 nM
15 | COCCN1CCC(Cn2cc(C(=O)O)c(=O)c3cc(Cl)c(N4Cc5cccnc5C4)cc32)CC1 [Example 125, 6-chloro-7-(5,7-dihydro-6H-pyrrolo[3,4-b]pyridin-6-yl)-1-((1-(2-methoxyethyl)piperidin-4-yl)methyl)-4-oxo-1,4-dihydroquinoline-3-carboxylic acid hydrochloride] | ≤ 1000 nM
16 | CC(=O)N1CCC(n2cc(C(=O)O)c(=O)c3cc(Cl)c(N4Cc5cccnc5C4)cc32)CC1 [Example 126, 1-(1-acetylpiperidin-4-yl)-6-chloro-7-(5,7-dihydro-6H-pyrrolo[3,4-b]pyridin-6-yl)-4-oxo-1,4-dihydroquinoline-3-carboxylic acid] | ≤ 1000 nM
17 | CN(C)C(=O)N1CCC(Cn2cc(C(=O)O)c(=O)c3cc(Cl)c(N4Cc5cccnc5C4)cc32)CC1 [Example 129, 6-chloro-7-(5,7-dihydro-6H-pyrrolo[3,4-b]pyridin-6-yl)-1-((1-(dimethylcarbamoyl)piperidin-4-yl)methyl)-4-oxo-1,4-dihydroquinoline-3-carboxylic acid] | ≤ 1000 nM
18 | CN(C)C(=O)N1CCC(n2cc(C(=O)O)c(=O)c3cc(Cl)c(N4Cc5cccnc5C4)cc32)CC1 [Example 130, 6-chloro-7-(5,7-dihydro-6H-pyrrolo[3,4-b]pyridin-6-yl)-1-(1-(dimethylcarbamoyl)piperidin-4-yl)-4-oxo-1,4-dihydroquinoline-3-carboxylic acid] | ≤ 1000 nM
19 | Cn1cnc(Cn2cc(C(=O)O)c(=O)c3cc(Cl)c(N4Cc5cccnc5C4)cc32)c1 [Example 131, 6-chloro-7-(5,7-dihydro-6H-pyrrolo[3,4-b]pyridin-6-yl)-1-((1-methyl-1H-imidazol-4-yl)methyl)-4-oxo-1,4-dihydroquinoline-3-carboxylic acid] | ≤ 1000 nM
20 | COCCN(C)c1cc2c(cc1Cl)c(=O)c(C(=O)O)cn2-c1cnc(N)cc1C [Example 132, 1-(6-amino-4-methylpyridin-3-yl)-6-chloro-7-((2-methoxyethyl)(methyl)amino)-4-oxo-1,4-dihydroquinoline-3-carboxylic acid] | ≤ 1000 nM
21 | COCCCN(C)c1cc2c(cc1Cl)c(=O)c(C(=O)O)cn2-c1cnc(N)cc1C [Example 133, 1-(6-amino-4-methylpyridin-3-yl)-6-chloro-7-((3-methoxypropyl)(methyl)amino)-4-oxo-1,4-dihydroquinoline-3-carboxylic acid] | ≤ 1000 nM
22 | COc1cc2c(=O)c(C(=O)O)cn(-c3cnc(NC(=O)OC(C)(C)C)cc3C)c2cc1N1Cc2cccnc2C1 [Example 135, 1-(6-((tert-butoxycarbonyl)amino)-4-methylpyridin-3-yl)-7-(5,7-dihydro-6H-pyrrolo[3,4-b]pyridin-6-yl)-6-methoxy-4-oxo-1,4-dihydroquinoline-3-carboxylic acid] | ≤ 1000 nM
23 | Cc1cc(NC(=O)OC(C)(C)C)ncc1-n1cc(C(=O)O)c(=O)c2ccc(N3Cc4cccnc4C3)cc21 [Example 136, 1-(6-((tert-butoxycarbonyl)amino)-4-methylpyridin-3-yl)-7-(5,7-dihydro-6H-pyrrolo[3,4-b]pyridin-6-yl)-4-oxo-1,4-dihydroquinoline-3-carboxylic acid] | ≤ 1000 nM
24 | CCN(CCOC)c1cc2c(cc1Cl)c(=O)c(C(=O)O)cn2-c1cnc(N)cc1C [Example 138, 1-(6-amino-4-methylpyridin-3-yl)-6-chloro-7-(ethyl(2-methoxyethyl)amino)-4-oxo-1,4-dihydroquinoline-3-carboxylic acid] | ≤ 1000 nM
25 | COc1cc2c(=O)c(C(=O)O)cn(-c3cnc(N)cc3C)c2cc1N1Cc2cccnc2C1 [Example 139, 1-(6-amino-4-methylpyridin-3-yl)-7-(5,7-dihydro-6H-pyrrolo[3,4-b]pyridin-6-yl)-6-methoxy-4-oxo-1,4-dihydroquinoline-3-carboxylic acid] | ≤ 1000 nM
26 | Cc1cc(N)ncc1-n1cc(C(=O)O)c(=O)c2ccc(N3Cc4cccnc4C3)cc21 [Example 140, 1-(6-amino-4-methylpyridin-3-yl)-7-(5,7-dihydro-6H-pyrrolo[3,4-b]pyridin-6-yl)-4-oxo-1,4-dihydroquinoline-3-carboxylic acid] | ≤ 1000 nM
27 | Cc1cc2c(=O)c(C(=O)O)cn(-c3cnc(N)cc3C)c2cc1N1Cc2cccnc2C1 [Example 141] | ≤ 1000 nM
28 | Cc1cc2c(=O)c(C(=O)O)cn(-c3cnc(NC(=O)OC(C)(C)C)cc3C)c2cc1N1Cc2cccnc2C1 [Example 142, 1-(6-((tert-butoxycarbonyl)amino)-4-methylpyridin-3-yl)-7-(5,7-dihydro-6H-pyrrolo[3,4-b]pyridin-6-yl)-6-methyl-4-oxo-1,4-dihydroquinoline-3-carboxylic acid] | ≤ 1000 nM
29 | COCCN(C)c1cc(C)c(-n2cc(C(=O)O)c(=O)c3cc(Cl)c(N4Cc5cccnc5C4)nc32)cn1 [Example 143, 6-chloro-7-(5,7-dihydro-6H-pyrrolo[3,4-b]pyridin-6-yl)-1-(6-((2-methoxyethyl)(methyl)amino)-4-methylpyridin-3-yl)-4-oxo-1,4-dihydro-1,8-naphthyridine-3-carboxylic acid] | ≤ 1000 nM
